Assay results as given in US5068183A, “Method for measurement of α-amylase activity” (Kurita Water Industries, Ltd., priority 1986, dated 1991).

Columns and labels:
α-amylase [1] = assay: Measurement of α-amylase activity with Reagent II (substrate, α-glucosidase, inositol dehydrogenase, NAD); assay type: biochemical; settings: substrate 1 mmol/l; sample serum containing 55 mU/ml and 220 mU/ml; 37° C., 10 minutes; linear after 4 minutes
Description: On the other hand, in the case of using the malto-oligo saccharide represented by general formula (V), when the substrate and glucosidase as a coupled enzyme are added to a sample such as a body fluid or the like, the reaction proceeds as shown below (hereinafter G5 I represented by general formula (VI) is used as a specific example of general formula (V)). [drawing 8]
The thus liberated inositol or derivatives thereof are reacted with inositol dehydrogenase (IDH) in the presence of NAD thereby to produce NADH; by the change in absorbancy, the amount of inositol can be determined. [drawing 9]
Reagent II was prepared by the following formulation.
(§1) 1 mmol/l (final concentration)
(§2) 25 U/ml (final concentration)
40 U/ml (final concentration
NAD 40 mmol/l (final concentration)
(§3) 100 mmol/l (final concentration)
To 800 μl of Reagent II described above was added 100 μl of a sample serum containing 55 mU/ml and 220 mU/ml, respectively. While incubating at 37° C. for 10 minutes, change in absorbancy was measured at 340 nm.
Measurement was performed in a similar manner as in Example 5 except that 100 mg/ml of glucose was further added to each sample serum.

α-amylase [2] = assay: Measurement of α-amylase activity with Reagent I (substrate, α-glucosidase, mannitol dehydrogenase, NADH); assay type: biochemical; settings: substrate 1 mmol/l; sample serum containing 90 mU/ml and 270 mU/ml; 37° C., 10 minutes; linear after 6 minutes
Description: When the substrate and glucosidase as a coupled enzyme are added to a sample such as a body fluid or the like, the reaction proceeds as shown below in the case of the malto-oligo saccharide represented by general formula (I) (hereinafter MeG5 F represented by general formula (IV) is used as a specific example of general formula (I)). [drawing 6]
The thus liberated monosaccharides such as fructose or the like and derivatives thereof are reacted with, for example, mannitol dehydrogenase (MDH) or sorbitol dehydrogenase (SDH) in the presence of NADH thereby to produce […]; by the change in absorbancy, the amount of fructose can be determined. [drawing 7]
Reagent I was prepared by the following formulation.
as §1, §2
40 U/ml (final concentration)
NADH 0.16 mmol/l (final concentration)
as §3
100 mmol/1 (final concentration) To 800 μl of Reagent I described above was added 100 μl of a sample serum containing 90 mU/ml and 270 mU/ml, respectively. While incubating at 37° C. for 10 minutes, change in absorbancy was measured at 340 nm.
Measurement was performed in a similar manner except that 100 mg/ml of glucose was further added to each sample serum.

Row | Structure (SMILES) | change in absorbancy at 340 nm (FIG. 2) (α-amylase [1]) | change in absorbancy at 340 nm (FIG. 1) (α-amylase [2])
1 | OC[C@H]1O[C@H](O[C@H]2[C@H](O)[C@@H](O)[C@@H](O[C@H]3[C@H](O)[C@@H](O)[C@@H](O[C@H]4[C@H](O)[C@@H](O)[C@@H](O[C@H]5[C@H](O)[C@@H](O)[C@@H](OC6C(O)C(O)C(O)C(O)C6O)O[C@@H]5CO)O[C@@H]4CO)O[C@@H]3CO)O[C@@H]2CO)[C@H](O)[C@@H](O)[C@@H]1O (some centres unmarked) [G5 I] | good linear relationship was obtained in any concentration after 4 minutes | 
2 | COC[C@H]1O[C@H](O[C@H]2[C@H](O)[C@@H](O)[C@@H](O[C@H]3[C@H](O)[C@@H](O)[C@@H](O[C@H]4[C@H](O)[C@@H](O)[C@@H](O[C@H]5[C@H](O)[C@@H](O)[C@@H](O[C@]6(CO)O[C@H](CO)[C@@H](O)[C@@H]6O)O[C@@H]5CO)O[C@@H]4CO)O[C@@H]3CO)O[C@@H]2CO)[C@H](O)[C@@H](O)[C@@H]1OC [MeG5 F] |  | good linear relationship was obtained in any concentration after 6 minutes
